Laboratory results: patent US12053441B2, “Formulations for improving the delivery of hydrophobic agents” (THE ROYAL INSTITUTION FOR THE ADVANCEMENT OF LEARNING / …, priority 2018, dated 2024)

Test system: cells
Test: Cellular UQ measurements after treatment with micellar UQ10 solutions (FIG. 22)
Format: cell-based
Details: UQ10 solution prepared with the surfactant, 6 μM UQ10, 1-day
Source text: UQ levels are expressed as ng per mg of protein (mean±SEM). Each bar represents the average of 2 to 3 independent measurements. […] ND: not detected. #p<0.0001 (vs. untreated controls; two-way ANOVA followed by Dunnett's multiple comparison test).

Molecule | cellular uptake of UQ10 compared to adding UQ10 alone
Benzalkonium chloride [BAC] | increased cellular uptake of UQ10
CCCCCCCCCCCCCC[N+](C)(C)C.[Br-] [TTAB, Tetradecyl trimethyl ammonium bromide] | increased cellular uptake of UQ10
